# Columns and labels:
# Experiment in all cases: KinaseProfiler Assay
# [1] = biological target: CHK2(I157T)(h) (Homo sapiens, UniProt O96017, I157T)
# [2] = biological target: T1, NEK11(h) (Homo sapiens, UniProt Q8NG66)
# T1 sequence (Q8NG66 1-645): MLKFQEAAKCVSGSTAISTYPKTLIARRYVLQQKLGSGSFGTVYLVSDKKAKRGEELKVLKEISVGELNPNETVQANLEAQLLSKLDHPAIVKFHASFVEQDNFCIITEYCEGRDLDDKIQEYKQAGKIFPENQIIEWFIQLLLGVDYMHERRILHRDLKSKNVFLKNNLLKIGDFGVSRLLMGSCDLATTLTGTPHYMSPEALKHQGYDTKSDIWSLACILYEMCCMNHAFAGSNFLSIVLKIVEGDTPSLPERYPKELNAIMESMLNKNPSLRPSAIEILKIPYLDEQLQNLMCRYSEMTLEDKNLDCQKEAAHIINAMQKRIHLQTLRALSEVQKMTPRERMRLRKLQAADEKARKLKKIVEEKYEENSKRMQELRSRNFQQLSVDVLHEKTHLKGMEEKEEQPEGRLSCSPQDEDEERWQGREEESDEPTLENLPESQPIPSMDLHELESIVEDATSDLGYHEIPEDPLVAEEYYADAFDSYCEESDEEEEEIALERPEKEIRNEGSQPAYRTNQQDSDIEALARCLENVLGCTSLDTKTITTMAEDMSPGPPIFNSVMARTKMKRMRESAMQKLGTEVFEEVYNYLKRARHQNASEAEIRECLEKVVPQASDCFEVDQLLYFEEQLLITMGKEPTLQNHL
# [3] = biological target: TLK2(h) (Homo sapiens, UniProt Q86UE8)
# [4] = biological target: Yes(h) (Homo sapiens, UniProt P07947)
# [5] = biological target: PDGFRβ(h) (Homo sapiens, UniProt P09619)
# [6] = biological target: Rsk4(h) (Homo sapiens, UniProt Q9UK32)
# [7] = biological target: EGFR(L858R)(h) (Homo sapiens, UniProt P00533, L858R)
# [8] = biological target: CDK3/cyclinE(h) (Homo sapiens, UniProt Q00526)
# [9] = biological target: MELK(h) (Homo sapiens, UniProt Q14680)
# [10] = biological target: cKit(V654A)(h) (Homo sapiens, UniProt P10721, V654A)
# [11] = biological target: CaMKIδ(h) (Homo sapiens, UniProt Q8IU85)
# [12] = biological target: Rsk2(h) (Homo sapiens, UniProt P51812)
# [13] = biological target: Plk3(h) (Homo sapiens, UniProt Q9H4B4)
# [14] = biological target: IRAK1(h) (Homo sapiens, UniProt P51617)
# [15] = biological target: PDGFRα(V561D)(h) (Homo sapiens, UniProt P16234, V561D)
# [16] = biological target: cSRC(h) (Homo sapiens, UniProt P12931)
# Chain of cSRC(h) (P12931 whole entry): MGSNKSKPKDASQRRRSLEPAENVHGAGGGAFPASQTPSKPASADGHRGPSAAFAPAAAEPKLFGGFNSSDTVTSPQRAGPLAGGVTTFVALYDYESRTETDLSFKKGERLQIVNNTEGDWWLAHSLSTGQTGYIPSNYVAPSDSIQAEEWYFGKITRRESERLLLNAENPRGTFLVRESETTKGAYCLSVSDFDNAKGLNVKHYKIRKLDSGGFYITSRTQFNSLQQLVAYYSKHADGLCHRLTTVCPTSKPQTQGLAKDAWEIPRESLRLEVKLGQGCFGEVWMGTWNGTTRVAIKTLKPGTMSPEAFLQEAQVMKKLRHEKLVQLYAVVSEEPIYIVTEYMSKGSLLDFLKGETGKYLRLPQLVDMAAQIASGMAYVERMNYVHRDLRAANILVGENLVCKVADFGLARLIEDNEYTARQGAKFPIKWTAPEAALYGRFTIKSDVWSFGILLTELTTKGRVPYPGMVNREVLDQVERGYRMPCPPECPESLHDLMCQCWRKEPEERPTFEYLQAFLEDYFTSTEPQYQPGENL
# Chain of cKit(V654A)(h) (P10721 26-976 V654A): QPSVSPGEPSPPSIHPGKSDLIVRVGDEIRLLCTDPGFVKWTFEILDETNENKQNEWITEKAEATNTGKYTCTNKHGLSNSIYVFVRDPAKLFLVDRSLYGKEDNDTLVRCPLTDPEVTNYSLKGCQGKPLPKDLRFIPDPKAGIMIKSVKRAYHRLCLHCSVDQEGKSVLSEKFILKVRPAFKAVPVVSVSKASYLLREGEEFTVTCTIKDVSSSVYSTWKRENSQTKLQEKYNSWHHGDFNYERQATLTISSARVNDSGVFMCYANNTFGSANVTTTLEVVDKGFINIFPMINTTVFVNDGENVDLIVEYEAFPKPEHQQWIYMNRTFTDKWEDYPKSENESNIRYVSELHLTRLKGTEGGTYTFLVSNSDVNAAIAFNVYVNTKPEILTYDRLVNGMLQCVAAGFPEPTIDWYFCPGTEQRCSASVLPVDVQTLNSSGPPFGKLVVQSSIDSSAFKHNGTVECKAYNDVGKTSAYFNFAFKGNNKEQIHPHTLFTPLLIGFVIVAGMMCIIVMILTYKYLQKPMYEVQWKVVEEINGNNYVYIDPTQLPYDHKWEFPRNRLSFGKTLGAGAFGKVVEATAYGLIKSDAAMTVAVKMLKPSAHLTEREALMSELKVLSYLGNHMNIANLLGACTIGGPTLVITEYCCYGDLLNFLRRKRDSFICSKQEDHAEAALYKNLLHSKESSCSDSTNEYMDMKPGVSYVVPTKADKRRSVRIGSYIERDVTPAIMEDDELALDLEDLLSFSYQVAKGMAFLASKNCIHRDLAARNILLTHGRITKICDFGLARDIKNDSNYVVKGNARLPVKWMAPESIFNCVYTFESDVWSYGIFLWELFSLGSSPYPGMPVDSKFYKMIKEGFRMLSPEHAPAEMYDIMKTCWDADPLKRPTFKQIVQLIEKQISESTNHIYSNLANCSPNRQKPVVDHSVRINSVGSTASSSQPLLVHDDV
# Chain of MELK(h) (Q14680 whole entry): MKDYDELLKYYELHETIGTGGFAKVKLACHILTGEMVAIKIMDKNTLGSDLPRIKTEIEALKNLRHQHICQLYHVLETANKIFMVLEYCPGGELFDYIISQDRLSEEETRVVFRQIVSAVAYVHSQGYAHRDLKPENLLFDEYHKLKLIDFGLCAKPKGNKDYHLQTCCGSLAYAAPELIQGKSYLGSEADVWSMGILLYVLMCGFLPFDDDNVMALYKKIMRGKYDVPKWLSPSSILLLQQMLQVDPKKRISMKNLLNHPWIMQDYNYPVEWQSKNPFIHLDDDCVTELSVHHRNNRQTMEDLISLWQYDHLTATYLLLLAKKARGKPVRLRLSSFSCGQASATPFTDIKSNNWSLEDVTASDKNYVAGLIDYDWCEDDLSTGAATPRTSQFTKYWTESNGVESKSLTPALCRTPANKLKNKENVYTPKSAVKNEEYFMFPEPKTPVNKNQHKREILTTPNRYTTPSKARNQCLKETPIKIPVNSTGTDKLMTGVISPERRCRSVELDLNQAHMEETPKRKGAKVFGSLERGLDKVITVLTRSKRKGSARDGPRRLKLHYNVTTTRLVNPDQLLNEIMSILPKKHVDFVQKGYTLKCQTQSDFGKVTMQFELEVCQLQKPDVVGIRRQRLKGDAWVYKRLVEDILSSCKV
# Chain of CaMKIδ(h) (Q8IU85 whole entry): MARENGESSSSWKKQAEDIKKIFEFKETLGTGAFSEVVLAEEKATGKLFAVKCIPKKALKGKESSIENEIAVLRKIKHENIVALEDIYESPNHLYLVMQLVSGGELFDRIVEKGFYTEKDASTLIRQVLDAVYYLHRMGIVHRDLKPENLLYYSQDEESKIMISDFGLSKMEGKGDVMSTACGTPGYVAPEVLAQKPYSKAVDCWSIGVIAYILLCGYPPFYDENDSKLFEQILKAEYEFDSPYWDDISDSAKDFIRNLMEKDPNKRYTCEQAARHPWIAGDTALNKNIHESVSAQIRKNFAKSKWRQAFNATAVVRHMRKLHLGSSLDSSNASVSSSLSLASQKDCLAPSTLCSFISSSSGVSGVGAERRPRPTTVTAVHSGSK
# Chain of IRAK1(h) (P51617 whole entry): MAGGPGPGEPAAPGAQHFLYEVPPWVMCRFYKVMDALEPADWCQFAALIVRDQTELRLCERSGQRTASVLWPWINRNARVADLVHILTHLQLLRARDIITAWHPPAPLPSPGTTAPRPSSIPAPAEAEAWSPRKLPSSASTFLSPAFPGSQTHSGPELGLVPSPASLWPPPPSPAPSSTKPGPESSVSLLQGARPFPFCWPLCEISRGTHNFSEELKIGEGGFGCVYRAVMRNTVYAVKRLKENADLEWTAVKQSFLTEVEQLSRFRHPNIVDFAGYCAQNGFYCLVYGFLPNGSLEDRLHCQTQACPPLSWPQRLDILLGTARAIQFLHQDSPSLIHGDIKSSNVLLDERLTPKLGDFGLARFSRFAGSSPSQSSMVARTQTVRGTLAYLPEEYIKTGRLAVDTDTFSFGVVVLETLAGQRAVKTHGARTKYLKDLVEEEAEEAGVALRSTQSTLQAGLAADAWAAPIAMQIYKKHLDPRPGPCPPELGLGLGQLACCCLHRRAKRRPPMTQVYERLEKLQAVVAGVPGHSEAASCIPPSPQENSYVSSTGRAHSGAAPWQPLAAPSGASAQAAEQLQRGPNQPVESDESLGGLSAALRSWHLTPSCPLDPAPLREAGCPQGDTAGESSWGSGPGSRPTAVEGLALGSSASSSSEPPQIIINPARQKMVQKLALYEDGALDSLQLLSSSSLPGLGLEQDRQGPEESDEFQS
# Chain of Rsk2(h) (P51812 whole entry): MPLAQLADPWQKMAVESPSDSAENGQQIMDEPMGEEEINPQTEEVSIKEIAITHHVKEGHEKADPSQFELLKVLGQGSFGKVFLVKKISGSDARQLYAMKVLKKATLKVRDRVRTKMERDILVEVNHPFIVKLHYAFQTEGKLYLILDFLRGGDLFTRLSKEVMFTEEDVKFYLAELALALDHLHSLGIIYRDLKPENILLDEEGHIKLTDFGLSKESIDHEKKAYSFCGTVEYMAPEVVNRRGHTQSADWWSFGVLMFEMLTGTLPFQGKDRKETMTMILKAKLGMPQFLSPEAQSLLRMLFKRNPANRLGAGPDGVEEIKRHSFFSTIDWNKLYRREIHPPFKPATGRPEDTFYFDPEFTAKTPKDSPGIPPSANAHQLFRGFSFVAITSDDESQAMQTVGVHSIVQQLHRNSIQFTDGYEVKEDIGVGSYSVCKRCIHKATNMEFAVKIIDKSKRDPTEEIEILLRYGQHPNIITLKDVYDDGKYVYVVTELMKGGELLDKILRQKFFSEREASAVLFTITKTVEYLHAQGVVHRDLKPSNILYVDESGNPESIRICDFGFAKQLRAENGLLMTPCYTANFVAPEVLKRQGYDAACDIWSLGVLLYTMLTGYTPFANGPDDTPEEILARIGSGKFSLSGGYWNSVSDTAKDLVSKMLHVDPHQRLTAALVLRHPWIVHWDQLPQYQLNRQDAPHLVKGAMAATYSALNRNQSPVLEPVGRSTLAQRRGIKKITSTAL
# Chain of Plk3(h) (Q9H4B4 whole entry): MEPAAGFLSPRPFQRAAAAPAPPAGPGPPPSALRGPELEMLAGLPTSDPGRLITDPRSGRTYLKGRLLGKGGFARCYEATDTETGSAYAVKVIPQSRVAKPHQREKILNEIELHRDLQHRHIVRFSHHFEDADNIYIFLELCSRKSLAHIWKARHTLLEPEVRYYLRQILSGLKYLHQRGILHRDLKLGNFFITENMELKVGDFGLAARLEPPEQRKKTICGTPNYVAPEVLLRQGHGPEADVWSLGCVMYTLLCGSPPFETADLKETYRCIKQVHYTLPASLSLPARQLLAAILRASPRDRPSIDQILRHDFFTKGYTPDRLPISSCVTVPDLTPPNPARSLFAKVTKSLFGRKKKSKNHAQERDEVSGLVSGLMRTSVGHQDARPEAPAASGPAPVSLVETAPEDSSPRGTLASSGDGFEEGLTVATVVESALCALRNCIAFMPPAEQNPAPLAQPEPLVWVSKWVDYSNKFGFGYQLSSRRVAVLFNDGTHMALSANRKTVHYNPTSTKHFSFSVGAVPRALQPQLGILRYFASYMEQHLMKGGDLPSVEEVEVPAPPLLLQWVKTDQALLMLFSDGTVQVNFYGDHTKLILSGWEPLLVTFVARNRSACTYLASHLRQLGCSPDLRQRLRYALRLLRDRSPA
structure (smiles),measurement,setting,value
"CC(C)CCC(=O)[C@]1(O)C(O)=C(C(=O)C(C)C)C(=O)[C@H]1CCC(C)C [TH2, tetrahydroiso-cohumulone]",kinase inhibition,[1]; 1 μg/ml,108% of control
same,kinase inhibition,[1]; 5 μg/ml,104% of control
same,kinase inhibition,[1]; 25 μg/ml,94% of control
same,kinase inhibition,[1]; 50 μg/ml,83% of control
same,kinase inhibition,[1]; 100 μg/ml,74% of control
same,kinase inhibition,[2]; 1 μg/ml,97% of control
same,kinase inhibition,[2]; 5 μg/ml,106% of control
same,kinase inhibition,[2]; 25 μg/ml,96% of control
same,kinase inhibition,[2]; 50 μg/ml,75% of control
same,kinase inhibition,[2]; 100 μg/ml,51% of control
same,kinase inhibition,[3]; 1 μg/ml,98% of control
same,kinase inhibition,[3]; 5 μg/ml,89% of control
same,kinase inhibition,[3]; 25 μg/ml,106% of control
same,kinase inhibition,[3]; 50 μg/ml,94% of control
same,kinase inhibition,[3]; 100 μg/ml,98% of control
same,kinase inhibition,[4]; 1 μg/ml,92% of control
same,kinase inhibition,[4]; 5 μg/ml,81% of control
same,kinase inhibition,[4]; 25 μg/ml,116% of control
same,kinase inhibition,[4]; 50 μg/ml,111% of control
same,kinase inhibition,[4]; 100 μg/ml,104% of control
same,kinase inhibition,[5]; 1 μg/ml,111% of control
same,kinase inhibition,[5]; 5 μg/ml,110% of control
same,kinase inhibition,[5]; 25 μg/ml,53% of control
same,kinase inhibition,[5]; 50 μg/ml,50% of control
same,kinase inhibition,[5]; 100 μg/ml,44% of control
same,kinase inhibition,[6]; 1 μg/ml,79% of control
same,kinase inhibition,[6]; 5 μg/ml,71% of control
same,kinase inhibition,[6]; 25 μg/ml,47% of control
same,kinase inhibition,[6]; 50 μg/ml,31% of control
same,kinase inhibition,[6]; 100 μg/ml,17% of control
same,kinase inhibition,[7]; 1 μg/ml,109% of control
same,kinase inhibition,[7]; 5 μg/ml,117% of control
same,kinase inhibition,[7]; 25 μg/ml,104% of control
same,kinase inhibition,[7]; 50 μg/ml,90% of control
same,kinase inhibition,[7]; 100 μg/ml,70% of control
same,kinase inhibition,[8]; 1 μg/ml,102% of control
same,kinase inhibition,[8]; 5 μg/ml,104% of control
same,kinase inhibition,[8]; 25 μg/ml,120% of control
same,kinase inhibition,[8]; 50 μg/ml,103% of control
same,kinase inhibition,[8]; 100 μg/ml,84% of control
same,kinase inhibition,[9]; 1 μg/ml,116% of control
same,kinase inhibition,[9]; 5 μg/ml,104% of control
same,kinase inhibition,[9]; 25 μg/ml,102% of control
same,kinase inhibition,[9]; 50 μg/ml,98% of control
same,kinase inhibition,[9]; 100 μg/ml,83% of control
same,kinase inhibition,[10]; 1 μg/ml,100% of control
same,kinase inhibition,[10]; 5 μg/ml,101% of control
same,kinase inhibition,[10]; 25 μg/ml,112% of control
same,kinase inhibition,[10]; 50 μg/ml,88% of control
same,kinase inhibition,[10]; 100 μg/ml,75% of control
same,kinase inhibition,[11]; 1 μg/ml,95% of control
same,kinase inhibition,[11]; 5 μg/ml,88% of control
same,kinase inhibition,[11]; 25 μg/ml,101% of control
same,kinase inhibition,[11]; 50 μg/ml,105% of control
same,kinase inhibition,[11]; 100 μg/ml,98% of control
same,kinase inhibition,[12]; 1 μg/ml,102% of control
same,kinase inhibition,[12]; 5 μg/ml,100% of control
same,kinase inhibition,[12]; 25 μg/ml,81% of control
same,kinase inhibition,[12]; 50 μg/ml,43% of control
same,kinase inhibition,[12]; 100 μg/ml,32% of control
same,kinase inhibition,[13]; 1 μg/ml,120% of control
same,kinase inhibition,[13]; 5 μg/ml,105% of control
same,kinase inhibition,[13]; 25 μg/ml,104% of control
same,kinase inhibition,[13]; 50 μg/ml,99% of control
same,kinase inhibition,[13]; 100 μg/ml,86% of control
same,kinase inhibition,[14]; 1 μg/ml,99% of control
same,kinase inhibition,[14]; 5 μg/ml,112% of control
same,kinase inhibition,[14]; 25 μg/ml,37% of control
same,kinase inhibition,[14]; 50 μg/ml,39% of control
same,kinase inhibition,[14]; 100 μg/ml,39% of control
same,kinase inhibition,[15]; 1 μg/ml,115% of control
same,kinase inhibition,[15]; 5 μg/ml,126% of control
same,kinase inhibition,[15]; 25 μg/ml,116% of control
same,kinase inhibition,[15]; 50 μg/ml,111% of control
same,kinase inhibition,[15]; 100 μg/ml,103% of control
same,kinase inhibition,[16]; 1 μg/ml,114% of control
same,kinase inhibition,[16]; 5 μg/ml,114% of control
same,kinase inhibition,[16]; 25 μg/ml,108% of control
same,kinase inhibition,[16]; 50 μg/ml,101% of control
same,kinase inhibition,[16]; 100 μg/ml,87% of control
